In patent US10548894B2, “Combination therapy” (Array BioPharma Inc., priority 2013, dated 2020):

Columns and labels:
Test in all cases: 72 hr cell titer Glo proliferation assay, BRAFV600E mutant CRC cell lines
Type in all cases: cell-based
[1] = tested on: SNU-C5; conditions: SNU-C5 (PI3Kα mutation), single agent
Procedure: (§1) Single agent and combinatorial effects on proliferation of inhibitors of RAF (Compound of Formula (I)) and PIK3Ca (Compound X) kinases in seven BRAF-mutant CRC-derived cell lines. All cell lines express the BRAFV600E protein. Cells harboring known or putative activating mutations in the PI3Kα gene are marked with a (*) and cells with PTEN loss marked with a (#). Cell proliferation was measured in 72 hr cell titer Glo™ assays and all results supplied are the result of at least triplicate measurements. Shown are single agent IC50 values for the Compound of Formula (I) and Compound X. Synergy score (SS) measurements as well as the combination index (C150) at the 50% effect level are given for each combination) in Table 6. Interactions were deemed synergistic when SS values were ≥2.0 and CI values were ≤0.5. Interactions were deemed additive/synergistic when either SS values were ≥2.0 but CI values were >0.5 or SS values were <2.0 but CI values were ≤0.5. Interactions where termed additive when SS values were <2.0 and CI values were >0.5. Synergy calls are given in the “effect description” columns.

[2] = tested on: RKO; conditions: RKO (PI3Kα mutation), single agent
Procedure: as §1

[3] = tested on: LS411N; conditions: single agent
Procedure: as §1

[4] = tested on: OUMS-23; conditions: OUMS-23 (PTEN loss), single agent
Procedure: as §1

[5] = tested on: COLO 205; conditions: COLO 205, single agent
Procedure: as §1

[6] = tested on: CL-34; conditions: CL-34, single agent
Procedure: as §1

[7] = tested on: SW1417; conditions: SW1417, single agent
Procedure: as §1

[8] = tested on: HT-29; conditions: HT-29 (PI3Kα mutation), single agent
Procedure: as §1

- IC50 [1]: > 2700 nM
- IC50 [5]: > 2700 nM
- IC50 [7]: > 2700 nM
- IC50 [8]: > 2700 nM
SMILES: Cc1nc(NC(=O)N2CCC[C@H]2C(N)=O)sc1-c1ccnc(C(C)(C)C(F)(F)F)c1 [Compound X, (S)-Pyrrolidine-1,2-dicarboxylic acid 2-amide 1-({4-methyl-5-[2-(2,2,2-trifluoro-1,1-dimethyl-ethyl)-pyridin-4-yl]-thiazol-2-yl}-amide)]
- IC50 [2]: > 2700 nM
- IC50 [3]: > 2700 nM
- IC50 [4]: > 2700 nM
- IC50 [6]: > 2700 nM
